Data on seven compounds can be found in patent publication US6919425B2, “Isolation of a cell-specific internalizing peptide that infiltrates tumor tissue for targeted drug delivery” (Board of Regents, The University of Texas System, priority 2000, dated 2005).

The conditions of data set [1]: cited from earlier work.
The nature of data set [2]: Toxicity, immunogenicity and stability in HN-1 injected mice. Type of data set: in vivo.
For data set [3], the system named is MDA177Tu cells.
For data set [4] the following is noted: mouse, in vivo; cited from earlier work.

“Also recorded” adds a separate entry of the source. Starred links: 1 amine or outer side, 2 acyl side, 3 side chain; linkers in the order of their positions; H or OH if unused. Positions of bridges follow the written chain, without caps; N, C: chain ends. Non-standard residues stand in square brackets, D forms with d. Residues, ends and D or L forms follow the SMILES beside them. Chains are numbered I, II in the order given. Actinocin(9to1) = Cc1c2oc3c(C)ccc(C(=O)[*:1])c3nc-2c(C(=O)[*:2])c(N)c1=O; NMeV = CN[C@H](C(=O)O)C(C)C; Sar = CNCC(=O)O

Turning to `Cc1c2oc3c(C)ccc(C(=O)N[C@@H]4C(=O)N[C@H](C(C)C)C(=O)N5CCC[C@H]5C(=O)N(C)CC(=O)N(C)[C@@H](C(C)C)C(=O)O[C@@H]4C)c3nc-2c(C(=O)N[C@@H]2C(=O)N[C@H](C(C)C)C(=O)N3CCC[C@H]3C(=O)N(C)CC(=O)N(C)[C@@H](C(C)C)C(=O)O[C@@H]2C)c(N)c1=O` [Actinomycin D] (I: T[dV]P[Sar][NMeV] / II: T[dV]P[Sar][NMeV]; ester I:1-I:C, II:1-II:C; linker I:N-II:N via Actinocin(9to1)), the “dose excreted / detected intact in the urine” value in data set [1] (in vivo) is reported as 10%.
Turning to `CC[C@H](C)[C@H](NC(=O)[C@H](CC(N)=O)NC(=O)[C@H](CC(C)C)NC(=O)[C@@H]1CCCN1C(=O)[C@H](CO)NC(=O)[C@@H](N)[C@@H](C)O)C(=O)N[C@@H](Cc1c[nH]cn1)C(=O)N[C@@H](CC(N)=O)C(=O)NCC(=O)N[C@@H](CCC(N)=O)C(=O)N[C@@H](CCCCN)C(=O)N[C@@H](CC(C)C)C(N)=O` [HN-1] (H-TSPLNIHNGQKL-NH2; N-terminus and C-terminus assumed), the toxicity result in data set [2] (histology of organs of injected mice) is “no histological evidence of organotoxicity; also recorded: nontoxic”. In addition, in data set [2] (mouse, in vivo), the immunogenicity result was “nonimmunogenic” and the “protection of cargo during transit” value was “protects its “cargo” during transit; also recorded: protects its cargo during transit”. The stability in vivo entry in data set [2] (shown by detecting intact peptide in blood 24 h after injection) is given as “stable in vivo”.
For the compound `O=NN(CCCl)C(=O)NC1CCCCC1` [Lomustine, 1-(2-chloro-ethyl)-3-cyclohexyl-1nitrosourea], the “tissue levels relative to plasma levels” value in data set [1] (in vivo, iv) is on record as “comparable”.
In the case of `CC[C@]1(O)C[C@@H]2CN(CCc3c([nH]c4ccccc34)[C@@](C(=O)OC)(c3cc4c(cc3OC)N(C)[C@H]3[C@@](O)(C(=O)OC)[C@H](OC(C)=O)[C@]5(CC)C=CCN6CC[C@]43[C@@H]65)C2)C1` [Vinblastine], the “dose excreted / detected intact in the urine” value in data set [1] (in vivo) is given as “Approximately 15%”. In data set [1] (intravenous injection), the “half-life of disappearance from plasma after distribution (first of two)” value is reported as “approximately 1 hours” and the “half-life of disappearance from plasma after distribution (second of two)” value is around 20 h.
Regarding `CC[C@]1(O)C[C@H]2CN(CCc3c([nH]c4ccccc34)[C@@](C(=O)OC)(c3cc4c(cc3OC)N(C=O)[C@H]3[C@@](O)(C(=O)OC)[C@H](OC(C)=O)[C@]5(CC)C=CCN6CC[C@]43[C@@H]65)C2)C1` [Vincristine], the “terminal half-life of clearance from the plasma” value in data set [1] (multiphasic) was “about 24 hours”.
Consider `O=C1OC2(c3ccc(O)cc3Oc3cc(O)ccc32)c2ccccc21` [fluorescein], for which the “permeability of the dyes themselves” value in data set [3] is “impermeable”.
As to Bleomycin, in data set [4], the “concentrations in hematopoietic tissue / bone marrow” value is reported as “low concentrations”; the “concentrations in skin, lungs, kidneys, peritoneum and lymphatics” value was “high concentrations”.
